Data: patent US5792745A, “Use of peptides for altering bone resorption” (La Jolla Cancer Research Center, priority 1995, dated 1998)
“Also recorded” adds a separate entry of the source. Where a SMILES comes first, the peptide text is derived from it. Bridges are numbered along the chain shown (N, C = ends). [ ]: non-standard residue; d: D form. Tic = O=C(O)[C@@H]1Cc2ccccc2CN1; Mpa = O=C(O)CCS

Assays:
[1] = system: parathyroid hormone-induced hypercalcemia; experiment: parathyroid hormone-induced hypercalcemia in mice; type: in vivo; conditions: parathyroidectomized mice, 4 hr peptide infusion, FIG. 9
α5 β1 (FnR) = molecular target: T1, α5 β1 (FnR) (Homo sapiens, UniProt P05556+P08648); experiment: α5 β1 ELISA (competitive); type: binding; conditions: comparison of ELISA values
T1 construct: Fibronectin receptor (FnR) was purified from 100 mM octyl-glucopyranoside-extracted human placenta; from tissue
Description: Peptide binding to purified human αv β5 and αv β3, which are VnR's, and to α5 β1, which is a FnR, was determined using competitive ELISA assays as described below. If desired, an αIIb β3 ELISA can be performed as described in W091/15515.
Peptide binding to purified human α5 β1 (FnR) also was determined using a competitive ELISA. In these assays, Fn was immobilized to the wells and the binding of solubilized FnR in the presence of various concentrations of a peptide analogue was determined using a mouse monoclonal antibody to human β1 (clone P4C10; Gibco) and specific binding was visualized using a second antibody.
Microtiter wells were coated at RT by adding 100 μl of 2 μg/ml human Fn in TBS and incubating the plates overnight at 4° C. Following incubation, the plates were washed 3× with TBS/"TWEEN 20" (polyoxyethylenesorbitan monolaurate). RGD peptides were diluted in TBS containing 20 mM OG and 2 mM MnCl2 and 50 μl was added to wells at 10-fold serial dilutions. FnR was diluted in the same buffer and 50 μl was added to each well.
The plates were incubated for 3 hr at RT and washed with 300 μl TBS/"TWEEN 20" (polyoxyethylenesorbitan monolaurate). Bound receptor was incubated with 100 μl of the monoclonal anti-β1 antibody for 2 hr, then washed 3× with TBS/"TWEEN 20" (polyoxyethylenesorbitan monolaurate). […] The amount of bound second antibody was determined as described above. […]

[2] = system: integrin receptors / osteoclasts; experiment: series of assays of Examples II and III for potency and selectivity (summary); conditions: for activity of minimal-element peptides (in words): FIG. 2
Description: Peptides of the RGDNTic (SEQ ID NO: 31) pharmacophore group are characterized, in general, as having increased potency, whereas the peptides of the pharmacophore RGDDV (SEQ ID NO: 1) group generally have higher receptor selectivity. […] As used herein, the term "potency" or "potent" means that a peptide of the invention is active at a relatively low concentration in the assays described in Examples II and III. A potent peptide of the invention can be identified, for example, using the assays described in Examples II and III.
The present invention also provides a series of in vitro and in vivo assays useful for screening a panel of peptides in order to identify peptides that can reduce or inhibit bone resorption or that can alter integrin binding such as αv β3 integrin receptor-mediated binding. Such peptides can include, for example, peptides within the pharmacophore groups exemplified herein or peptides within other pharmacophore groups. The series of assays disclosed herein is particularly useful for determining the selectivity and potency of a peptide for reducing or inhibiting bone resorption. The selectivity of a peptide for an integrin receptor involved in osteoclast binding to bone can be determined, for example, using the integrin receptor assays and cell attachment and detachment assays described herein. Use of cell-based assays in conjunction with receptor-based assays is informative because the receptor ELISAs provide useful information regarding the binding characteristics of a particular peptide toward a particular integrin and because the cell-based assays confirm that those characteristics are relevant to the αv β3 receptor or to bone resorption.

αv β3 receptor = molecular target: T2, αv β3 receptor (Homo sapiens, UniProt P05106+P06756); experiment: αv β3 ELISA (competitive); type: binding; conditions: ELISA / JY cell IC50 values of FIG. 2 compared
T2 construct: The αv β3 receptor was purified from octyl-glucopyranoside-extracted human placenta; from tissue
Description: Peptide binding to purified αv β3 receptor was determined by using a competitive ELISA, in which αv β3 receptor was immobilized and the binding of solubilized VN, in the presence of various concentrations of peptide analogue, was detected using a monoclonal mouse IgG anti-VN antibody and a labelled anti-mouse IgG conjugate.
50 μl of Vn in the same buffer then was added to each well.
The development process was stopped by adding 50 μl to 4N H2 SO4 to each well. The plates were read at 490 nm and the data analyzed by four parameter fit.

chick osteoclasts = experiment: chick cell detachment assay (osteoclasts vs total cells); type: cell-based; conditions: FIG. 5
rat osteoclasts = experiment: rat osteoclast attachment assay compared with MG63 / NRK cell attachment; type: cell-based; conditions: FIGS. 7 and 8 compared
Description: 3. Rat osteoclast attachment assay
To determine the effect of a peptide on the attachment of rat osteoclasts in vitro, 100 μl aliquots of the rat pup bone cell suspension described in Example II.B.2., above, were added in triplicate to 96 well MAXISORP plates coated with specific substrates or with FCS. Substrate coated plates were used to determine the ability of peptides to inhibit attachment or induce detachment of an osteoclast from a ligand such as vitronectin, fibronectin, osteopontin or collagen I (Collaborative Research), which are ligands present in bone. Substrates were added to 96 well plates (50 μl of a 5-10 μg/ml solution in sodium carbonate, pH 9.5) and incubated for 2 hr at 37° C. For FCS control wells, 100 μl 10% FCS was added. Wells were aspirated, then washed 2× with PBS and blocked with 1% bovine serum albumin in PBS for 2 hr at 37° C. Wells were aspirated and washed again 2× with PBS. Cells were seeded in duplicate at 4×10^4 cells/well. […]
Following incubation, the medium and nonadherent cells were removed by aspiration from each well. […] Adherent osteoclasts were counted by light microscopy. […]
MG63 and NRK cell lines were purchased from ATTC (Rockville, Md.). […] Following staining, the stain was extracted with 20% acetic acid and the OD562 of the extracted stain was determined. […]
Selectivity of a peptide can be determined by comparing the results of FIGS. 7 and 8 (see, also FIG. 2).

osteoclasts = conditions: cited from earlier work
bone resorption = conditions: cited from earlier work
neointimal hyperplasia = conditions: rabbit, in vivo; cited from earlier work

CC(C)[C@@H]1NC(=O)[C@H](CC(=O)O)NC(=O)[C@H](CC(=O)O)NC(=O)CNC(=O)[C@H](CCCNC(=N)N)NC(=O)CCSSC[C@@H](C(N)=O)NC1=O [compound 191] ([Mpa]RGDDVC-NH2; disulfide 1-7)
PTH-induced change in serum ionized calcium [1]: decreased the PTH-induced rise in serum ionized calcium in a dose responsive manner

C[C@@H]1NC(=O)[C@H](CCCNC(=N)N)NC(=O)CNC(=O)CC[C@@H](C(N)=O)NC(=O)[C@@H]2CCCN2C(=O)[C@H](CC(N)=O)NC(=O)[C@H](CC(=O)O)NC(=O)CNC(=O)[C@H](CCCNC(=N)N)NC1=O [compound 390] (GRARGDNPE-NH2; lactam N-9)
receptor selectivity for α5 β1 versus αv β5 (α5 β1 (FnR)): more selective toward α5 β1 than toward αv β5

CC(=O)N[C@H]1CSSC[C@@H](C(N)=O)NC(=O)[C@@H]2Cc3ccccc3CN2C(=O)[C@H](CO)NC(=O)[C@H](CC(=O)O)NC(=O)CNC(=O)[C@H](CCCNC(=N)N)NC1=O [compound 812, Ac-CRGDS(Tic)C-NH2] (Ac-CRGDS[Tic]C-NH2; disulfide 1-7)
activity of minimal-element peptides (in words) [2]: demonstrate activity

N=C(N)NCCC[C@@H]1NC(=O)CC[C@@H](C(N)=O)NC(=O)[C@@H]2CCCN2C(=O)[C@H](CO)NC(=O)[C@H](CC(=O)O)NC(=O)CNC1=O [compound 825] (RGDSPE-NH2; lactam N-6)
receptor selectivity for α5 β1 versus αv β5 (α5 β1 (FnR)): more selective toward α5 β1 than toward αv β5

CC(C)[C@@H]1NC(=O)[C@H](CC(=O)O)NC(=O)[C@H](CC(=O)O)NC(=O)CNC(=O)[C@H](CCCNC(=N)N)NC(=O)CNC(=O)C[C@@H](C(N)=O)NC1=O [peptide 368] (GRGDDVD-NH2; lactam N-7)
receptor selectivity for αv β3 versus αv β5 and α5 β1 (comparison of IC50 values) (αv β3 receptor): receptor selective for αv β3; also recorded: selective peptide
both potent and selective (summary classification) [2]: both potent and selective
receptor selectivity (summary classification) [2]: particularly receptor selective

CC(C)[C@@H]1NC(=O)[C@H](CC(=O)O)NC(=O)[C@H](CC(=O)O)NC(=O)CNC(=O)[C@H](CCCNC(=N)N)NC(=O)CC[C@@H](C(N)=O)NC1=O [peptide 386, RGDDVE-NH2] (RGDDVE-NH2; lactam N-6)
selective detachment of osteoclasts versus other cell types (chick osteoclasts): caused selective detachment of osteoclasts as compared to other cell types
selectivity: osteoclast attachment versus MG63 or NRK attachment (rat osteoclasts): selective
PTH-induced change in serum ionized calcium [1]: relatively low level of serum calcium
activity of minimal-element peptides (in words) [2]: demonstrate activity

Echistatin
binding to osteoclasts (literature) (osteoclasts): binds to osteoclasts in a nonselective manner
inhibition of bone resorption in vitro (literature) (osteoclasts; in vitro): inhibits bone resorption in vitro
inhibition of bone resorption in vivo (literature) (bone resorption): inhibits bone resorption

G(Pen)GRGDSPCA
inhibition of neointimal hyperplasia (literature) (neointimal hyperplasia): can inhibit neointimal hyperplasia
